Results reported in patent publication US7625890B2, “Substituted imidazo[4,5-c]pyridine compounds as Akt inhibitors” (SmithKline Beecham Corp., priority 2005, dated 2009).
In brackets after ≈: the same amount, converted by molar mass. Counter-ions that a name gives are not always drawn.

Experiment: Solubility
Type: physicochemical
Details: for solubility: aqueous buffer, 50 mM phosphate buffer, pH 7.4; for solubility, suitability for IV dosage forms: statement in words

Compound | solubility [µM] | solubility, suitability for IV dosage forms
CCn1c(-c2nonc2N)nc2c(C#CC(C)(C)O)ncc(OC[C@@H]3CN(C)CCO3)c21 [Example 8, 4-[2-(4-amino-1,2,5-oxadiazol-3-yl)-1-ethyl-7-({[(2S)-4-methyl-2-morpholinyl]methyl}oxy)-1H-imidazo[4,5-c]pyridin-4-yl]-2-methyl-3-butyn-2-ol] | 34 (≈ 15 µg/mL) | 
CCn1c(-c2nonc2N)nc2c(C#CC(C)(C)O)ncc(OC[C@H]3CCCNC3)c21 [Example 1, 4-(2-(4-amino-1,2,5-oxadiazol-3-yl)-1-ethyl-7-{[(3S)-3-Piperidinylmethyl]oxy}-1H-imidazo[4,5-c]pyridin-4-yl)-2-methyl-3-butyn-2-ol] | 210 (≈ 89.4 µg/mL) | suitable for formulation into dosage forms for IV administration
CCn1c(-c2nonc2N)nc2c(C#CC(C)(C)O)ncc(OCC3CCNC3)c21 (centres unmarked) [Example 5, 4-{2-(4-amino-1,2,5-oxadiazol-3-yl)-1-ethyl-7-[(3-Pyrrolidinylmethyl)oxy]-1H-imidazo[4,5-c]pyridin-4-yl}-2-methyl-3-butyn-2-ol, bis-trifluoroacetic acid salt] | 83 | 
CCN1CCO[C@H](COc2cnc(C#CC(C)(C)O)c3nc(-c4nonc4N)n(CC)c23)C1 [Example 10, 4-[2-(4-amino-1,2,5-oxadiazol-3-yl)-1-ethyl-7-({[(2S)-4-ethyl-2-morpholinyl]methyl}oxy)-1H-imidazo[4,5-c]pyridin-4-yl]-2-methyl-3-butyn-2-ol] | 6 (≈ 2.73 µg/mL) | 
CCn1c(-c2nonc2N)nc2c(C#CC(C)(C)O)ncc(OC[C@H]3CNCCO3)c21 [Example 2, 4-(2-(4-amino-1,2,5-oxadiazol-3-yl)-1-ethyl-7-{[(2R)-2-morpholinylmethyl]oxy}-1H-imidazo[4,5-c]pyridin-4-yl)-2-methyl-3-butyn-2-ol dihydrochloric acid salt] | 188 | 
CCn1c(-c2nonc2N)nc2c(C#CC(C)(C)O)ncc(OC[C@@H]3CNCCS3)c21 (single isomer, unassigned; enantiomer e1) [Example 3, 4-{2-(4-amino-1,2,5-oxadiazol-3-yl)-1-ethyl-7-[(2-thiomorpholinylmethyl)oxy]-1H-imidazo[4,5-c]pyridin-4-yl}-2-methyl-3-butyn-2-ol dihydrochloride (enantiomer E1)] | 110 | suitable for formulation into dosage forms for IV administration
CCn1c(-c2nonc2N)nc2c(C#CC(C)(C)O)ncc(OC[C@@H]3CNCCO3)c21 [Example 4, 4-(2-(4-amino-1,2,5-oxadiazol-3-yl)-1-ethyl-7-{[(2S)-2-morpholinylmethyl]oxy}-1H-imidazo[4,5-c]pyridin-4-yl)-2-methyl-3-butyn-2-ol] | 154 (≈ 65.8 µg/mL) | suitable for formulation into dosage forms for IV administration
CCn1c(-c2nonc2N)nc2c(C#CC(C)(C)O)ncc(OC[C@@H]3CN(C)CCS3)c21 (single isomer, unassigned; enantiomer e1) [Example 7, 4-(2-(4-amino-1,2,5-oxadiazol-3-yl)-1-ethyl-7-{[(4-methyl-2-thiomorpholinyl)methyl]oxy}-1H-imidazo[4,5-c]pyridin-4-yl)-2-methyl-3-butyn-2-ol (enantiomer E1)] | 23 (≈ 10.5 µg/mL) | 
CCn1c(-c2nonc2N)nc2c(C#CC(C)(C)O)ncc(OCC3CNCC(C)O3)c21 (stereo in doubt) [Example 9, 4-[2-(4-amino-1,2,5-oxadiazol-3-yl)-1-ethyl-7-({[(2R)-6-methyl-2-morpholinyl]methyl}oxy)-1H-imidazo[4,5-c]pyridin-4-yl]-2-methyl-3-butyn-2-ol, dihydrochloride] | 129 | suitable for formulation into dosage forms for IV administration
CCn1c(-c2nonc2N)nc2c(C#CC(C)(C)O)ncc(OC[C@H]3CCCN(C)C3)c21 [Example 6, 4-[2-(4-amino-1,2,5-oxadiazol-3-yl)-1-ethyl-7-({[(3S)-1-methyl-3-piperidinyl]methyl}oxy)-1H-imidazo[4,5-c]pyridin-4-yl]-2-methyl-3-butyn-2-ol, dihydrochloride] | 44 | 
